{"source": "patent US11104965B2", "about": "“Methods for the diagnosis and treatment of inflammatory bowel disease” (priority 2013, dated 2021)", "key": {"[1]": {"tested_on": "Atopobium-induced colitis in II10−/− mice", "assay": "Atopobium-induced colitis in II10-/- mice under SPF conditions, treated or not with bismuth (colonoscopy, blinded histological inflammation score)", "type": "in vivo, mouse", "conditions": "A. parvulum-associated II10-/- mice, 6 weeks", "description": "(§1) To test the causative role of H2S-producing microbes in colitis, we assessed whether an H2S scavenger (bismuth) could alleviate Atopobium-induced colitis in II10^−/− mice. […] It should be noted that the intestines of IBD patients also display a similar increased number of lymphoid follicles^15. […] Increased GALT foci in Atopobium-associated mice could lead to an aberrant expression of lymphoid adhesion molecules and unwanted T cell activation towards commensal microbes. To assess the role of these commensal microbes in colitis development, germ-free mice were mono-associated with A. parvulum and kept under gnotobiotic conditions.\nColonic mucosal lavages and/or mucosal biopsies were collected from 157 pediatric subjects (84 Crohn's Disease, 20 Ulcerative Colitis, and 53 controls). […] Reads were quality filtered and QIIME ^23 was used to assign reads into operational taxonomic units (OTUs) against the Greengenes reference set. […] The generated raw data was processed and analyzed by MaxQuant against the decoy Uniport-human database with the protein-group file imported into Persus for statistical analysis. […] The transcript levels of TST, SQRDL and COX4-1 were quantified by RT-qPCR. […] Mouse colonoscopies were performed and histological inflammation was blindly scored as previously described ^25. Mice mucosal cytokines (Cxcl1, II12p40, II1β and II17a) were quantified by RT-qPCR. […]"}, "[2]": {"tested_on": "GALT foci of II10−/− mice", "assay": "Number of GALT foci in II10-/- mice associated with A. parvulum, SPF conditions", "type": "in vivo, mouse", "conditions": "Atopobium-associated II10-/- mice under SPF conditions; FIG. 4C", "description": "(§2) Statistical significance was assessed using a Kruskal-Wallis test with a Dunn's post hoc test.\nas §1\n(§3) To investigate involvement of complex biota and H2S in the development of colitis, we performed two subsequent experiments using 129/SvEv II-10^−/− mice. […] Mice were euthanized after 6 weeks of mono-association. […] Mice were fed with this diet starting 1 week before the colonization with A. parvulum. […] Mice were euthanized after 6 weeks of weekly infection with A. parvulum. […]\n(§4) All animal protocols were approved by the Institutional Animal Care and Use Committee of the University of North Carolina at Chapel Hill. […] Histological images were acquired using a DP71 camera and DP Controller 3.1.1.276 (Olympus), and intestinal inflammation was scored as previously described^12. […]"}, "[3]": {"tested_on": "GALT foci of II10−/− mice", "assay": "Number of GALT foci in II10-/- mice mono-associated with A. parvulum, gnotobiotic conditions", "type": "in vivo, mouse", "conditions": "germ-free II10-/- mice mono-associated with A. parvulum, FIG. 4C", "description": "as §2, §1, §3, §4"}, "A. parvulum": {"tested_on": "A. parvulum", "assay": "A. parvulum colonization level in stool of mono-associated II10-/- mice by real-time qPCR", "type": "in vivo, Atopobium parvulum", "conditions": "6 weeks, P=0.0001, FIG. 12B", "description": "Statistical significance was assessed using a Mann-Whitney U-test.\nas §1\nTo investigate involvement of complex biota and H2S in the development of colitis, we performed two subsequent experiments using 129/SvEv II-10^−/− mice. […] Mice were euthanized after 6 weeks of mono-association. […] Mice were fed with this diet starting 1 week before the colonization with A. parvulum. […] Mice were euthanized after 6 weeks of weekly infection with A. parvulum. […] Mice were fed with this diet starting 1 week before the colonization with A. parvulum."}, "[4]": {"tested_on": "gut microbiota of II10−/− mice", "assay": "Gut microbiota composition of SPF and Atopobium-associated II10-/- mice, treated or not with bismuth (PCA, Table 6)", "type": "in vivo, mouse", "description": "To assess the role of these commensal microbes in colitis development, germ-free mice were mono-associated with A. parvulum and kept under gnotobiotic conditions. […] FIG. 12B). […] GF+bismuth (III) subsalicylate (n=10); 3: […] A. parvulum+bismuth (III) subsalicylate (n=11). Mice were euthanized after 6 weeks of mono-association. […] Mice were fed with this diet starting 1 week before the colonization with A. parvulum. […] SPF+bismuth (III) subsalicylate (n=8); 3: […] A. parvulum+bismuth (III) subsalicylate (n=8). Mice were euthanized after 6 weeks of weekly infection with A. parvulum. […] Mice were fed with this diet starting 1 week before the colonization with A. parvulum."}}}
{"smiles": "O=C([O-])c1ccccc1[O-].[Bi+3].[OH-]", "note": "[bismuth, Bismuth (III) subsalicylate]", "values": [{"measurement": "inflammatory score", "setting": "[1]; bismuth 7 g/kg in chow, P=0.007, FIG. 4B", "result": "decrease inflammatory score"}, {"measurement": "colitis as evidenced by colonoscopy visualization", "setting": "[1]; bismuth (III) subsalicylate 7 g/kg in chow, FIG. 4A", "result": "prevented colitis"}, {"measurement": "GALT formation (number of GALT foci)", "setting": "[2]", "result": "did not prevent GALT formation"}, {"measurement": "GALT neogenesis", "setting": "[3]", "result": "prevented GALT neogenesis"}, {"measurement": "A. parvulum colonization level (16S rDNA gene copies per mg of stool)", "setting": "A. parvulum", "result": "reduced colonization level"}, {"measurement": "microbiota of Atopobium-associated mice, abundance of butyrate-producers", "setting": "[4]; Atopobium-associated II10-/- mice, SPF", "result": "restores the microbiota of these mice toward a healthier community"}, {"measurement": "microbiota composition", "setting": "[4]; SPF and Atopobium-associated II10-/- mice, Table 6", "result": "altered the microbiota composition"}]}
